“And” between values parts separate entries of the source, which are not always exact repeats. Equal values may be shown once. Toxic doses and inconclusive results are not listed.
System: P388 leukemia ip, CD2F1 mice, survival T/C
Assay: NCI In Vivo Anticancer Drug Screen. Data for tumor model P388 Leukemia (intraperitoneal) in CD2F1 (CDF1) mice
Conditions: endpoint: median survival time, higher = longer survival
Summary of the method: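 Mice carrying the transplanted tumor received test compound or vehicle. Survival was recorded in each group, and the value is the treated-group measurement divided by that of the vehicle-treated control group.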

[1] = dose: 100.0 mg/kg/injection, schedule: Q04DX003 (ip), vehicle: Klucel (hydroxypropylcellulose) (HPC)
[2] = dose: 200.0 mg/kg/injection, schedule: Q04DX003 (ip), vehicle: Klucel (hydroxypropylcellulose) (HPC)
[3] = dose: 400.0 mg/kg/injection, schedule: Q04DX003 (ip), vehicle: Klucel (hydroxypropylcellulose) (HPC)
[4] = dose: 50.0 mg/kg/injection, schedule: Q01DX005 (ip), vehicle: saline with Tween-80
[5] = dose: 100.0 mg/kg/injection, schedule: Q01DX005 (ip), vehicle: saline with Tween-80
[6] = dose: 200.0 mg/kg/injection, schedule: Q01DX005 (ip), vehicle: saline with Tween-80
[7] = dose: 60.0 mg/kg/injection, schedule: Q01DX005 (ip), vehicle: saline with Tween-80
[8] = dose: 120.0 mg/kg/injection, schedule: Q01DX005 (ip), vehicle: saline with Tween-80
[9] = dose: 240.0 mg/kg/injection, schedule: Q01DX005 (ip), vehicle: saline with Tween-80
[10] = dose: 50.0 mg/kg/injection, schedule: Q01DX009 (ip), vehicle: Klucel (hydroxypropylcellulose) (HPC)
[11] = dose: 100.0 mg/kg/injection, schedule: Q01DX009 (ip), vehicle: Klucel (hydroxypropylcellulose) (HPC)
[12] = dose: 200.0 mg/kg/injection, schedule: Q01DX009 (ip), vehicle: Klucel (hydroxypropylcellulose) (HPC)
[13] = dose: 50.0 mg/kg/injection, schedule: Q01DX005 (ip), vehicle: Klucel (hydroxypropylcellulose) (HPC)
[14] = dose: 100.0 mg/kg/injection, schedule: Q01DX005 (ip), vehicle: Klucel (hydroxypropylcellulose) (HPC)
[15] = dose: 200.0 mg/kg/injection, schedule: Q01DX005 (ip), vehicle: Klucel (hydroxypropylcellulose) (HPC)
[16] = dose: 50.0 mg/kg/injection, schedule: Q01DX009 (ip), vehicle: saline

## CC(C(=O)O)S(=O)(=O)O (configuration not stated)
dose: 20.0 mg/kg/injection, schedule: Q01DX009 (ip), vehicle: saline with Tween-80
  T/C: 100 % of control
dose: 40.0 mg/kg/injection, schedule: Q01DX009 (ip), vehicle: saline with Tween-80
  T/C: 96 % of control

## O=Nc1ccc(O)c2ncccc12
dose: 50.0 mg/kg/injection, schedule: Q01DX001 (ip), vehicle: Klucel (hydroxypropylcellulose) (HPC)
  T/C: 111 % of control
dose: 100.0 mg/kg/injection, schedule: Q01DX001 (ip), vehicle: Klucel (hydroxypropylcellulose) (HPC)
  T/C: 121 % of control

## COc1cccc2c1C(=O)c1c(O)c3c(c(O)c1C2=O)CC(O)(/C(C)=N/NC(=O)CCC(=O)N/N=C(\C)C1(O)Cc2c(O)c4c(c(O)c2C(OC2CC(N(C)C)C(O)C(C)O2)C1)C(=O)c1c(OC)cccc1C4=O)CC3OC1CC(N(C)C)C(O)C(C)O1 (configuration not stated)
dose: 1.0 mg/kg/injection, schedule: Q01DX009 (ip), vehicle: water
  T/C: 157 % of control
dose: 2.0 mg/kg/injection, schedule: Q01DX009 (ip), vehicle: water
  T/C: 183 % of control
dose: 3.13 mg/kg/injection, schedule: Q04DX003 (ip), vehicle: water
  T/C: 103 % of control
dose: 4.0 mg/kg/injection, schedule: Q01DX009 (ip), vehicle: water
  T/C: 178 % of control and 203 % of control
dose: 6.25 mg/kg/injection, schedule: Q04DX003 (ip), vehicle: water
  T/C: 110 % of control
dose: 8.0 mg/kg/injection, schedule: Q01DX009 (ip), vehicle: water
  T/C: 160 % of control and 240 % of control
dose: 12.5 mg/kg/injection, schedule: Q04DX003 (ip), vehicle: water
  T/C: 117 % of control
dose: 16.0 mg/kg/injection, schedule: Q01DX009 (ip), vehicle: water
  T/C: 152 % of control
dose: 25.0 mg/kg/injection, schedule: Q04DX003 (ip), vehicle: water
  T/C: 174 % of control
dose: 50.0 mg/kg/injection, schedule: Q04DX003 (ip), vehicle: water
  T/C: 119 % of control

## COC1C(=O)c2ccccc2N1C(C)=O (configuration not stated)
dose: 60.0 mg/kg/injection, schedule: Q01DX005 (ip), vehicle: Klucel (hydroxypropylcellulose) (HPC)
  T/C: 108 % of control
dose: 120.0 mg/kg/injection, schedule: Q01DX005 (ip), vehicle: Klucel (hydroxypropylcellulose) (HPC)
  T/C: 101 % of control
dose: 240.0 mg/kg/injection, schedule: Q01DX005 (ip), vehicle: Klucel (hydroxypropylcellulose) (HPC)
  T/C: 99 % of control

## COc1cc2c(c(OC)c1OC)CCC/C2=N\NC(N)=S
[1]
  T/C: 92 % of control
[2]
  T/C: 92 % of control
[3]
  T/C: 86 % of control

## COc1ccc(Cc2cc3c(cc2OCC(=O)O)OCO3)cc1
[4]
  T/C: 97 % of control
[5]
  T/C: 100 % of control
[6]
  T/C: 93 % of control

## O=C(/C(=C(/[O-])C(F)(F)F)[n+]1cccc2ccccc21)C(F)(F)F
[7]
  T/C: 104 % of control
[8]
  T/C: 91 % of control
[9]
  T/C: 99 % of control

## Cc1ccc([N+](=O)[O-])cc1I
[10]
  T/C: 99 % of control
[11]
  T/C: 99 % of control
[12]
  T/C: 100 % of control

## Nc1cc(O)c(O)c2c1C(=O)c1c(O)c(O)cc(N)c1C2=O
[13]
  T/C: 102 % of control
[14]
  T/C: 105 % of control
[15]
  T/C: 99 % of control

## COc1ccc(-n2nc3c(c2-c2cccnc2)CCCc2ccccc2-3)cc1
[4]
  T/C: 95 % of control
[5]
  T/C: 106 % of control
[6]
  T/C: 101 % of control

## CC(=O)OCC1=C(C)CC(C(C)C2CCC3C4CC5OC56C(OC(C)=O)C(N5CC5)CC(=O)C6(C)C4CCC23C)OC1=O (configuration not stated)
dose: 3.12 mg/kg/injection, schedule: Q01DX005 (ip), vehicle: Klucel (hydroxypropylcellulose) (HPC)
  T/C: 100 % of control
dose: 6.25 mg/kg/injection, schedule: Q01DX005 (ip), vehicle: Klucel (hydroxypropylcellulose) (HPC)
  T/C: 98 % of control
dose: 12.5 mg/kg/injection, schedule: Q01DX005 (ip), vehicle: Klucel (hydroxypropylcellulose) (HPC)
  T/C: 104 % of control
dose: 25.0 mg/kg/injection, schedule: Q01DX005 (ip), vehicle: Klucel (hydroxypropylcellulose) (HPC)
  T/C: 112 % of control
[13]
  T/C: 110 % of control

## C=C(C)/C(=C/C(=O)OCC)Sc1ccccc1
[1]
  T/C: 106 % of control
[2]
  T/C: 106 % of control
[3]
  T/C: 102 % of control

## CN1CCC2(CC1)COCc1ccccc12
dose: 25.0 mg/kg/injection, schedule: Q01DX009 (ip), vehicle: saline with Tween-80
  T/C: 101 % of control
dose: 50.0 mg/kg/injection, schedule: Q01DX009 (ip), vehicle: saline with Tween-80
  T/C: 104 % of control

## NC(=O)CCC(N)C(=O)O.[Cl-].[Cl-].[Cl-].[Cl-].[Pt+2] (configuration not stated)
dose: 6.25 mg/kg/injection, schedule: Q01DX009 (ip), vehicle: saline
  T/C: 107 % of control
dose: 6.25 mg/kg/injection, schedule: Q01DX009 (ip), vehicle: water
  T/C: 153 % of control
dose: 11.0 mg/kg/injection, schedule: Q01DX009 (ip), vehicle: saline
  T/C: 106 % of control
dose: 12.5 mg/kg/injection, schedule: Q01DX009 (ip), vehicle: saline
  T/C: 110 % of control
dose: 12.5 mg/kg/injection, schedule: Q01DX009 (ip), vehicle: water
  T/C: 154 % of control and 155 % of control
dose: 25.0 mg/kg/injection, schedule: Q01DX009 (ip), vehicle: water
  T/C: 155 % of control
dose: 37.5 mg/kg/injection, schedule: Q01DX009 (ip), vehicle: saline
  T/C: 157 % of control
[16]
  T/C: 152 % of control

## CC(C)CC(=O)CC(c1ccccc1)C(C(=O)/C=C/c1ccccc1)C(C)C (configuration not stated)
dose: 12.5 mg/kg/injection, schedule: Q01DX005 (ip), vehicle: saline with Tween-80
  T/C: 94 % of control
dose: 25.0 mg/kg/injection, schedule: Q01DX005 (ip), vehicle: saline with Tween-80
  T/C: 94 % of control
[4]
  T/C: 87 % of control and 92 % of control

## Cc1nc2nc3n(c(=O)c2nc1C)CCCS3
[16]
  T/C: 105 % of control
dose: 100.0 mg/kg/injection, schedule: Q01DX009 (ip), vehicle: saline
  T/C: 103 % of control
dose: 200.0 mg/kg/injection, schedule: Q01DX009 (ip), vehicle: saline
  T/C: 113 % of control

## N#CC(C(=O)CCC(=O)C(C#N)c1nc2ccccc2s1)c1nc2ccccc2s1 (configuration not stated)
dose: 100.0 mg/kg/injection, schedule: Q01DX001 (ip), vehicle: saline with Tween-80
  T/C: 89 % of control
dose: 200.0 mg/kg/injection, schedule: Q01DX001 (ip), vehicle: saline with Tween-80
  T/C: 88 % of control
dose: 400.0 mg/kg/injection, schedule: Q01DX001 (ip), vehicle: saline with Tween-80
  T/C: 91 % of control

## NNS(=O)(=O)c1cccc(S(=O)(=O)NN)c1
dose: 12.5 mg/kg/injection, schedule: Q01DX009 (ip), vehicle: other
  T/C: 96 % of control
dose: 25.0 mg/kg/injection, schedule: Q01DX009 (ip), vehicle: other
  T/C: 96 % of control
dose: 50.0 mg/kg/injection, schedule: Q01DX009 (ip), vehicle: other
  T/C: 99 % of control

## N#CC(Nc1ncccn1)c1ccccc1 (configuration not stated)
[7]
  T/C: 97 % of control
[8]
  T/C: 94 % of control
[9]
  T/C: 91 % of control

## C/C(=N\N=C\N(C)S(=O)(=O)c1ccc(C)cc1)c1ccccc1
[13]
  T/C: 104 % of control
[14]
  T/C: 98 % of control
[15]
  T/C: 95 % of control

## O=C1CC(=O)N2C=CC=CC2N1 (configuration not stated)
dose: 25.0 mg/kg/injection, schedule: Q01DX009 (ip), vehicle: Klucel (hydroxypropylcellulose) (HPC)
  T/C: 106 % of control
[10]
  T/C: 106 % of control
[11]
  T/C: 97 % of control
[12]
  T/C: 97 % of control

## COCCCN=C(N)N
dose: 50.0 mg/kg/injection, schedule: Q04DX003 (ip), vehicle: saline
  T/C: 109 % of control
dose: 100.0 mg/kg/injection, schedule: Q04DX003 (ip), vehicle: saline
  T/C: 100 % of control
dose: 200.0 mg/kg/injection, schedule: Q04DX003 (ip), vehicle: saline
  T/C: 95 % of control

## COc1ccc2nc3cc(Cl)ccc3c(NCC(O)CNc3c4ccc(Cl)cc4nc4ccc(OC)nc34)c2n1
[7]
  T/C: 92 % of control
[8]
  T/C: 90 % of control
[9]
  T/C: 90 % of control

## CC1(C)CC(=O)C2=C(C1)NC1=C(C(=O)CC(C)(C)C1)C2c1cccs1
[4]
  T/C: 98 % of control
[5]
  T/C: 98 % of control
[6]
  T/C: 93 % of control

## ClCCN(CCCl)c1ccc(N=Nc2ccc(-c3ccccc3)cc2)cc1
dose: 3.0 mg/kg/injection, schedule: Q01DX001 (ip), vehicle: Klucel (hydroxypropylcellulose) (HPC)
  T/C: 95 % of control
dose: 6.0 mg/kg/injection, schedule: Q01DX001 (ip), vehicle: Klucel (hydroxypropylcellulose) (HPC)
  T/C: 103 % of control
dose: 12.0 mg/kg/injection, schedule: Q01DX001 (ip), vehicle: Klucel (hydroxypropylcellulose) (HPC)
  T/C: 93 % of control

Source: PubChem BioAssay AID330 (DTP/NCI, 2004)
